Laboratory results as given in PMC11653243, “Enhancing Phototoxicity in BODIPY‐Perylene Charge Transfer Dyads by Combined Iodination and Mesylation” (Chemistry (Weinheim an Der Bergstrasse, Germany), 2024).
“And” between values parts separate entries of the source, which are not always exact repeats. Equal entries are not always repeated. Where two headings read alike, the source gives them in different places.

Assays:
[1] = DPBF singlet oxygen (ROS) scavenger assay in methanol; details: 470 nm LED, t=210 seconds relative to t=0, 10 mM DPBF in methanol, absorbance matched
Method: Given the impact of the heavy iodine atom on phototoxicity, to confirm if the origin of toxicity is triplet sensitised formation of ^1O2 we carried out ROS scavenger studies with 1,3‐diphenylisobenzofuran (DPBF, Figure 6C). Stock solutions of BODIPY‐perylene were prepared under absorbance matched conditions and a BODIPY‐DPBF solution prepared at concentration of 10 mM DPBF in methanol. The BODIPY‐DPBF solution was irradiated (470 nm) from 0–210 seconds and the absorption spectra recorded every 30 seconds. In the presence of ^1O2, DPBF forms an unstable peroxide, endoperoxide 1, that readily decomposes to colourless 1,2‐dibenzoylbenzene (DBB).[51] This change is detected spectrophotometrically with depletion of DPBF absorbance at 410 nm. The DPBF assay results are represented in Figure 6C as % decrease in absorbance at 410 nm. The values are determined at t=210 seconds relative to the absorbance values recorded prior to irradiation at t=0. […] As expected, the most phototoxic compound, MB2PI, generates the most ^1O2 upon irradiation with a 470 nm LED with a 52 % decrease in DPBF absorbance at 410 nm. […] DPBF is known to be sensitive to light, therefore, to mitigate photodegradation of affecting the assay results, exposure was limited to 3.5 minutes where DPBF absorbance decrease at 410 nm is <10 % at this time point. […] Due to the photo‐vulnerability of DPBF under visible irradiation, this study is limited by a short experimental window and ignores any ROS generation over longer irradiation periods. […]
Figure 6 ROS dye H2DCFDA (A) prior to irradiation and (B) after 5 minutes of continuous irradiation confirming ROS generation. […] A graph of ROS scavenger DPBF response to irradiation of the BODIPY‐perylene compounds is shown in (C) where a decrease in absorbance at 410 nm confirms ^1O2 generation upon photoactivation. Studies were performed with the BODIPY‐perylene compounds under absorbance matched conditions. Values shown indicate the % decrease in absorbance values recorded at t=0 and t=210 seconds and is reported as mean±standard deviation. […]
To assess singlet oxygen (1O2) production and determine if the phototoxicity of our BODIPY complexes was caused by the generation of reactive oxygen species (ROS), a 1O2 scavenger study was completed using 1,3-diphenylisobenzofuran (DPBF). A 20 mM solution of DPBF in methanol was prepared, and stocks of the BODIPY-perylene compounds in DMSO were prepared under absorbance matched concentrations, starting at a 30 µM concentration of each. Test solutions of 1:1, DPBF: BODIPY in methanol (final concentration of 10 mM DPBF) were added to a clear 96 well plate (Nunc) and absorbance was measured using a BMG LABTECH CLARIOstar plate reader. […]

[2] = design: method as in PMID 36802283; details: cited from earlier work
HeLa cells = tested on: HeLa cells; design: method as in PMID 31743947; details: 9.6 J/cm^2, 500 nm irradiation; cited from earlier work
[3] = Photophysical properties (absorption, emission, quantum yield, lifetime) in solvents; assay type: physicochemical; details: for Φf: absolute quantum yield, integrating sphere; for τave: intensity weighted average lifetime; for kr: kr=ΦF/τave; for emission intensity from water relative to emission intensity from toluene: matched absorption, water with 10 % DMSO
Description: The absorption and emission spectra of MB2P and MB2PI are shown in Figure 3, in a range of solvents across polarities. […] The absorption maxima is largely unaffected by solvent, similar to B2P/B2PI. The extinction coefficient is also modestly affected for MB2P but does vary with solvent for MB2PI, although the change is not correlated with solvent polarity. All compounds also show characteristic perylene absorption features between 400 and 430 nm. Also consistent with this previous study, the emission spectra are strongly solvent dependent. Intensely emissive from non‐polar media, MB2P and MB2PI are minimally emissive in polar (ethanol and DMSO) and aqueous media, (with 10 % DMSO for solubilisation). For example, under matched absorption conditions used to generate Figure 3, the emission intensity from water was 0.13 % (MB2P) and 1.6 % (MB2PI) of the emission intensity from toluene (see Figure S20).
Figure 3 Right, Absorption spectra of (A) MB2P and (B) MB2PI in different solvents at 10 μM, and, left, their respective emission. Excitation wavelength 532 nm, data recorded with 2.5–2.5 nm slit widths.

Compound: CC1=C(I)C(C)=[N+]2C1=C(c1ccccc1)c1c(C)c(-c3ccc4c5cccc6cccc(c7cccc3c74)c65)c(C)n1[B-]2(F)F [B2PI]
- decrease in DPBF absorbance at 410 nm [1]: 31%
- Mol. Bright ([2]; Dioxane): 2028
- Stokes Shift ([2]; Dioxane): 3232 cm⁻¹
- knr ([2]; Dioxane): 68 10^7 s^−1
- kr ([2]; Dioxane): 1.8 10^7 s^−1
- Φf ([2]; Dioxane): 0.03
- λabs ([2]; Dioxane): 531 nm
- λem ([2]; Dioxane): 641 nm
- τave ([2]; Dioxane): 1.4±0.01 ns
- ϵ ([2]; Dioxane): 67600 M⁻¹ cm⁻¹
- Amp of τ1 ([2]; Toluene): 7.2%
- Amp of τ2 ([2]; Toluene): 92.8%
- Mol. Bright ([2]; Toluene): 1899
- Stokes Shift ([2]; Toluene): 3003 cm⁻¹
- knr ([2]; Toluene): 32 10^7 s^−1
- kr ([2]; Toluene): 8.5 10^7 s^−1
- Φf ([2]; Toluene): 0.03
- λabs ([2]; Toluene): 534 nm
- λem ([2]; Toluene): 636 nm
- τ1 ([2]; Toluene): 2.9±0.1 ns
- τ2 ([2]; Toluene): 0.7±0.01 ns
- τave ([2]; Toluene): 1.2±0.0 ns
- ϵ ([2]; Toluene): 63300 M⁻¹ cm⁻¹

Compound: CC1=CC(C)=[N+]2C1=C(c1ccccc1)c1c(C)c(-c3ccc4c5cccc6cccc(c7cccc3c74)c65)c(C)n1[B-]2(F)F [B2P]
- decrease in DPBF absorbance at 410 nm [1]: 8%
- Amp of τ1 ([2]; Dioxane): 5.3%
- Amp of τ2 ([2]; Dioxane): 94.7%
- Mol. Bright ([2]; Dioxane): 6588
- Stokes Shift ([2]; Dioxane): 3417 cm⁻¹
- knr ([2]; Dioxane): 44 10^7 s^−1
- kr ([2]; Dioxane): 4.6 10^7 s^−1
- Φf ([2]; Dioxane): 0.09
- λabs ([2]; Dioxane): 515 nm
- λem ([2]; Dioxane): 625 nm
- τ1 ([2]; Dioxane): 4.1±0.2 ns
- τ2 ([2]; Dioxane): 1.8±0.0 ns
- τave ([2]; Dioxane): 2.0±0.0 ns
- ϵ ([2]; Dioxane): 73200 M⁻¹ cm⁻¹
- Mol. Bright ([2]; Toluene): 16884
- Stokes Shift ([2]; Toluene): 3071 cm⁻¹
- knr ([2]; Toluene): 79 10^7 s^−1
- kr ([2]; Toluene): 2.6 10^7 s^−1
- Φf ([2]; Toluene): 0.21
- λabs ([2]; Toluene): 518 nm
- λem ([2]; Toluene): 616 nm
- τ1 ([2]; Toluene): 2.5±0.0 ns
- τave ([2]; Toluene): 2.5±0.01 ns
- ϵ ([2]; Toluene): 80400 M⁻¹ cm⁻¹
- phototoxic index (PI) (HeLa cells): 1041

Compound: CC1=C(c2ccc3c4cccc5cccc(c6cccc2c63)c54)C(C)=[N+]2C1=C(c1c(C)cc(C)cc1C)c1c(C)c(I)c(C)n1[B-]2(F)F [MB2PI]
- Amp of τ1 ([3]; Dioxane): 2.5%
- Amp of τ2 ([3]; Dioxane): 97.5%
- Mol. Bright ([3]; Dioxane): 4374
- Stokes Shift ([3]; Dioxane): 3049 cm⁻¹
- knr ([3]; Dioxane): 85 10^7 s^−1
- λabs ([3]; Dioxane): ~532 nm
- λem ([3]; Dioxane): 635 nm
- τ1 ([3]; Dioxane): 4.0±0.1 ns
- τ2 ([3]; Dioxane): 0.7 ns and 0.7±0.01 ns
- ϵ ([3]; Dioxane): 72900 M⁻¹ cm⁻¹
- Φf ([3]; Dioxane): 0.06
- τave ([3]; Dioxane): 1.1±0.0 ns
- kr ([3]; Dioxane): 5.73 10^7 s^−1
- Amp of τ1 ([3]; Toluene): 5.6%
- Amp of τ2 ([3]; Toluene): 94.4%
- Mol. Bright ([3]; Toluene): 6534
- Stokes Shift ([3]; Toluene): 2854 cm⁻¹
- knr ([3]; Toluene): 114 10^7 s^−1
- λabs ([3]; Toluene): 534 nm
- λem ([3]; Toluene): 630 nm
- τ1 ([3]; Toluene): 1.6±0.1 ns
- τ2 ([3]; Toluene): 0.7 ns and 0.7±0.01 ns
- ϵ ([3]; Toluene): 72600 M⁻¹ cm⁻¹
- Φf ([3]; Toluene): 0.09
- τave ([3]; Toluene): 0.8±0.0 ns
- kr ([3]; Toluene): 11.2 10^7 s^−1
- emission intensity from water relative to emission intensity from toluene [3]: 1.6%
- decrease in DPBF absorbance at 410 nm [1]: 52%

Compound: CC1=C(c2ccc3c4cccc5cccc(c6cccc2c63)c54)C(C)=[N+]2C1=C(c1c(C)cc(C)cc1C)c1c(C)cc(C)n1[B-]2(F)F [MB2P]
- Mol. Bright ([3]; Dioxane): 20516
- Stokes Shift ([3]; Dioxane): 3131 cm⁻¹
- knr ([3]; Dioxane): 25 10^7 s^−1
- λem ([3]; Dioxane): 614 nm
- τ1 ([3]; Dioxane): 3.1±0.1 ns
- ϵ ([3]; Dioxane): 89200 M⁻¹ cm⁻¹
- Φf ([3]; Dioxane): 0.23
- τave ([3]; Dioxane): 3.1±0.1 ns
- kr ([3]; Dioxane): 7.4 10^7 s^−1
- Mol. Bright ([3]; Toluene): 32148
- Stokes Shift ([3]; Toluene): 3002 cm⁻¹
- knr ([3]; Toluene): 23 10^7 s^−1
- λabs ([3]; Toluene): 517 nm
- λem ([3]; Toluene): 612 nm
- τ1 ([3]; Toluene): 2.8±0.0 ns
- ϵ ([3]; Toluene): 89300 M⁻¹ cm⁻¹
- Φf ([3]; Toluene): 0.36
- τave ([3]; Toluene): 2.8±0.0 ns
- kr ([3]; Toluene): 12.9 10^7 s^−1
- emission intensity from water relative to emission intensity from toluene [3]: 0.13%
- decrease in DPBF absorbance at 410 nm [1]: 6%
